Experimental findings from US9682995B2, “Amino-substituted isothiazoles” (BAYER PHARMA AKTIENGESELLSCHAFT, priority 2013, dated 2017) are described below.

One assay deals with human kinase Mps-1 (Homo sapiens (Human), UniProt P33981). The assay is described as follows: Mps-1 kinase assay (TR-FRET). Format: biochemical. Conditions: 10 μM ATP; read-out: Mps1 avg (IC50 [mol/l]). In short, it runs like this: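 GST-tagged full-length human Mps-1 (~0.5 nM) preincubated 15 min with compound, then reacted 60 min at 22 °C with 10 μM ATP and 1 μM biotinylated peptide in Hepes pH 7.7 buffer. Phosphoproduct detected by TR-FRET (Eu anti-phospho-Ser/Thr, SA-XLent); 665/620 ratio normalised to no-inhibitor and no-enzyme controls.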
Chain of human kinase Mps-1 (P33981 whole entry): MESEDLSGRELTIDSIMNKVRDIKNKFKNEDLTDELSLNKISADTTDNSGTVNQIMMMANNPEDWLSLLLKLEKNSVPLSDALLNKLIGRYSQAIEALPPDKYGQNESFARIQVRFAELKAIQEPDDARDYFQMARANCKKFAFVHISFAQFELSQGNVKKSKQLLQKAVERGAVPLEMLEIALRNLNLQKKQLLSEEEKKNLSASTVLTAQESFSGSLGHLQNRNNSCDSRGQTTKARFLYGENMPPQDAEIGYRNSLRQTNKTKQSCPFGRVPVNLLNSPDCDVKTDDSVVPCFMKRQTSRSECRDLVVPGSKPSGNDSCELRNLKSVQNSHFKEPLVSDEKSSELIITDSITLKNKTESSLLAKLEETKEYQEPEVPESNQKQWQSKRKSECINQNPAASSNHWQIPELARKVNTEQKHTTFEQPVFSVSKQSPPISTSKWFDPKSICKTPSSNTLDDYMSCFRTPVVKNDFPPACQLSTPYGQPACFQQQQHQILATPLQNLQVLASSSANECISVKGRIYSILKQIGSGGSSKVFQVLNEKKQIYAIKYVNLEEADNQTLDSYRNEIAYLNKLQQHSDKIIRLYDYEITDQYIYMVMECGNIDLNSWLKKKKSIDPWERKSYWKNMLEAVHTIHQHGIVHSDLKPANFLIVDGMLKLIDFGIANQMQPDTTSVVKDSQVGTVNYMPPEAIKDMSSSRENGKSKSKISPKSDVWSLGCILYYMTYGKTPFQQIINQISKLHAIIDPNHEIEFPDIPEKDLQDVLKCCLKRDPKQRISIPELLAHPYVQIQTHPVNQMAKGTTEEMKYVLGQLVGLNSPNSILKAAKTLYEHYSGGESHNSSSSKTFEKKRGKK

The next assay has as its system HeLa. Briefly: Proliferation assay (crystal violet), HeLa. Format: cell-based. Conditions: Homo sapiens, 96 h, 4 days, read-out: Inhibition of proliferation IC50 HeLa. An outline of the steps: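 Tumour cells seeded at 1000–5000 cells/well in medium with 10% FCS, dosed after 24 h at 0.001–10 μM (0.5% DMSO final) for 4 days. Cell number read by crystal-violet staining after glutaraldehyde fixation (A595), normalised to zero-point plate (0%) and untreated cells (100%); IC50 from 4-parameter fit.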

The structures appear in SMILES notation.

For the molecule `Cc1nsc(Nc2cncc(C(=O)N(C)C)n2)c1C(=O)Nc1ccc(F)c(F)c1` [Example 104, 6-({4-[(3,4-Difluorophenyl)-carbamoyl]-3-methyl-1,2-thiazol-5-yl}amino)-N,N-dimethyl-pyrazine-2-carboxamide], the IC50 is above 20 µM on human kinase Mps-1 and 10 µM in the assay on HeLa.
The corresponding values for `Cc1nsc(Nc2cncc(N(C)C)n2)c1C(=O)Nc1ccc(F)c(F)c1` [Example 105, N-(3,4-Difluorophenyl)-5-{[6-(dimethylamino)pyrazin-2-yl]amino}-3-methyl-1,2-thiazole-4-carboxamide] are 12 µM and 10 µM.
The corresponding values for `Cc1nsc(Nc2cncc(C(=O)N3CCCC3)n2)c1C(=O)Nc1ccc(F)c(F)c1` [Example 106, N-(3,4-Difluorophenyl)-3-methyl-5-{[6-(pyrrolidin-1-ylcarbonyl)pyrazin-2-yl]amino}-1,2-thiazole-4-carboxamide] are above 20 µM and 3.7 µM.
With `Cc1nsc(Nc2cncc(C(=O)N3CCOCC3)n2)c1C(=O)Nc1ccc(F)c(F)c1` [Example 107, N-(3,4-Difluorophenyl)-3-methyl-5-{[6-(morpholin-4-ylcarbonyl)pyrazin-2-yl]amino}-1,2-thiazole-4-carboxamide], the IC50 on human kinase Mps-1 is above 20 µM; with HeLa, 4.9 µM.
For `CNC(=O)c1ccnc(Nc2snc(C)c2C(=O)Nc2ccc(F)c(F)c2)c1` [Example 108, 2-({4-[(3,4-Difluorophenyl)-carbamoyl]-3-methyl-1,2-thiazol-5-yl}amino)-N-methyliso-nicotinamide], the IC50 is above 20 µM at human kinase Mps-1 and 10 µM in the assay with HeLa.
With `Cc1nsc(Nc2cnc(C(=O)N(C)C)cn2)c1C(=O)Nc1ccc(F)c(F)c1` [Example 109, 5-({4-[(3,4-Difluorophenyl)carbamoyl]-3-methyl-1,2-thiazol-5-yl}amino)-N,N-dimethylpyrazine-2-carboxamide], the IC50 is above 20 µM on human kinase Mps-1 and 5 µM in the assay on HeLa.
For `Cc1nsc(Nc2ccc(C#N)cn2)c1C(=O)Nc1ccc(OC(C)C)nc1` [Example 110, 5-[(5-Cyanopyridin-2-yl)amino]-N-(6-isopropoxyridin-3-yl)-3-methyl-1,2-thiazole-4-carboxamide] the same measures were above 20 µM and 1.5 µM.
The corresponding values for `Cc1nsc(Nc2cnc3ccccc3n2)c1C(=O)Nc1ccc(Oc2ccccc2)nc1` [Example 112, 3-Methyl-N-(6-phenoxypyridin-3-yl)-5-(quinoxalin-2-ylamino)-1,2-thiazole-4-carboxamide] are above 20 µM and 2 µM.
On to `Cc1nsc(Nc2cnc3ccccc3n2)c1C(=O)Nc1ccc(Oc2ccc(F)cc2F)nc1` [Example 113, N-[6-(2,4-Difluorophenoxy)pyridin-3-yl]-3-methyl-5-(quinoxalin-2-ylamino)-1,2-thiazole-4-carboxamide], for which the IC50 is above 20 µM on human kinase Mps-1 and 0.88 µM in the assay with HeLa.
`Cc1nsc(Nc2cnc3ccccc3n2)c1C(=O)Nc1ccc(OC2CCCCC2)nc1` [Example 115, N-[6-(Cyclohexyloxy)pyridin-3-yl]-3-methyl-5-(quinoxalin-2-ylamino)-1,2-thiazole-4-carboxamide]: the IC50 at human kinase Mps-1 is above 20 µM; in the assay on HeLa it was 1.3 µM.
For `COc1ccc(Oc2ccc(NC(=O)c3c(C)nsc3Nc3cnc4ccccc4n3)cn2)cc1` [Example 116, N-[6-(4-Methoxyphenoxy)pyridin-3-yl]-3-methyl-5-(quinoxaline-2-ylamino)-1,2-thiazole-4-carboxamide] the same measures were 3.6 µM and 3.2 µM.
For `COc1ccc(Oc2ccc(NC(=O)c3c(C)nsc3Nc3cc(C#N)ccn3)cn2)cc1` [Example 117, 5-[(4-Cyanopyridin-2-yl)amino]-N-[6-(4-methoxyphenoxy)pyridin-3-yl]-3-methyl-1,2-thiazole-4-carboxamide] the same measures were above 20 µM and 3.2 µM.
As to `Cc1nsc(Nc2cc(C#N)ccn2)c1C(=O)Nc1ccc(OC2CCCCC2)nc1` [Example 118, 5-[(4-Cyanopyridin-2-yl)amino]-N-[6-(cyclohexyloxy)pyridin-3-yl]-3-methyl-1,2-thiazole-4-carboxamide], the values for the IC50 on human kinase Mps-1 and with HeLa were above 20 µM and 1.7 µM, respectively.
For `CCOc1ccc(NC(=O)c2c(C)nsc2Nc2cnc3ccccc3n2)cn1` [Example 119, N-(6-Ethoxypyridin-3-yl)-3-methyl-5-(quinoxalin-2-ylamino)-1,2-thiazole-4-carboxamide] the same measures were above 20 µM and 3.3 µM.
For `COc1ncc(NC(=O)c2c(C)nsc2Nc2ccc(C#N)cn2)cc1C` [Example 120, 5-[(5-Cyanopyridin-2-yl)amino]-N-(6-methoxy-5-methylpyridin-3-yl)-3-methyl-1,2-thiazole-4-carboxamide] the same measures were above 20 µM and 1.9 µM.
For `COc1ncc(NC(=O)c2c(C)nsc2Nc2cnc3ccccc3n2)cc1C` [Example 121, N-(6-Methoxy-5-methylpyridin-3-yl)-3-methyl-5-(quinoxalin-2-ylamino)-1,2-thiazole-4-carboxamide], the IC50 on human kinase Mps-1 is above 20 µM; with HeLa, 3.3 µM.
For `Cc1nsc(Nc2cnc3ccccc3n2)c1C(=O)Nc1ccc(OC(C)C)nc1` [Example 122, N-(6-Isopropoxypyridin-3-yl)-3-methyl-5-(quinoxalin-2-ylamino)-1,2-thiazole-4-carboxamide] the same measures were above 20 µM and 1.8 µM.
